From patent US10385065B2, “Antibacterial compounds” (priority 2014, dated 2019)
≈ marks a conversion by molar mass, not a printed value. Read-outs that look alike come from different tables or passages of the source.

How the values were obtained:
Format in all cases: cell-based
[1] = tested on: Staphylococcus aureus ATCC 29213; assay: MIC, broth microdilution, S. aureus ATCC 29213
[2] = tested on: Escherichia coli ATCC 25922; assay: MIC, broth microdilution, E. coli ATCC 25922; conditions: ATCC25922, Table 1, wild type strain
[3] = tested on: S. aureus NRS482 MRSA FQ resistant; assay: MIC, S. aureus NRS482; conditions: Staphylococcus aureus; Table 2
[4] = tested on: S. aureus SACPX1-SP25 MSSA - FQ resistant; assay: microbe, parasite or virus in culture; conditions: Staphylococcus aureus, ATCC 29213 / MSSA, read-out: MIC S. aureus SACPX1-SP25 MSSA - FQ resistant (isogenic mutant of ATCC 29213)
[5] = tested on: Enterococcus faecium ATCC 19434; assay: MIC, E. faecium ATCC 19434; conditions: ATCC19434, Table 2
[6] = tested on: Haemophilus influenzae ATCC 49247; assay: MIC, H. influenzae ATCC 49247; conditions: ATCC49247, Table 4
[7] = tested on: human hepatic cell line (HepG2 ATCC HB-8065); assay: Human cell viability assay (CellTiter-Glo), HepG2; conditions: HepG2, 24 h incubation, tested over 1-128 μg/mL, read-out: IC50 values against HepG2
Method: Compounds are assessed for potential non-specific cytotoxic effects against a human hepatic cell line (HepG2 ATCC HB-8065). HepG2 cells are seeded at 20,000 cells/well in 96-well microtitre plates in minimal essential medium (MEM) supplemented with a final concentration of 10% FBS and 1 mM sodium pyruvate. After 24 h compound dilutions are prepared in Dulbecco's minimum essential media (DMEM) supplemented with final concentrations of 0.001% FBS, 0.3% bovine albumin and 0.02% HEPES and added to cells. Compounds are tested in two-fold serial dilutions over a final concentration range of 1-128 μg/mL in a final DMSO concentration of 1% vol/vol. Chlorpromazine is used as a positive control. Cells are incubated with compound at 37° C. and 5% CO2 for a further 24 h, after which time the CellTiter-Glo reagent (Promega) is added. Luminescence is measured on a BMG Omega plate reader. Data are analysed using GraphPad Prism software to determine the concentration of compound that inhibits cell viability by fifty percent (IC50).

[8] = tested on: S. aureus (MRSA) ATCC 43300; assay: MIC, S. aureus ATCC 43300; conditions: Staphylococcus aureus; Table 2; read-out: MIC S. aureus (MRSA) ATCC 43300 Heterogeneous MRSA strain
[9] = tested on: S. aureus NRS1 MRSA; assay: MIC, S. aureus NRS1; conditions: Staphylococcus aureus; Table 2; read-out: MIC S. aureus NRS1 MRSA AMG & TET resistant
[10] = tested on: S. aureus NRS127 MRSA LZD resistant; assay: MIC, S. aureus NRS127; conditions: Staphylococcus aureus; Table 2
[11] = tested on: S. aureus VRS1 MRSA VAN resistant; assay: MIC, S. aureus VRS1; conditions: Staphylococcus aureus, Table 2
[12] = tested on: S. epidermidis NRS101 MRSE; assay: MIC, S. epidermidis NRS101; conditions: Staphylococcus epidermidis; Table 2; read-out: MIC S. epidermidis NRS101 MRSE AMG, ERY resistant
[13] = ATCC29213, Table 1, wild type strain, read-out: MIC S. aureus ATCC 29213
[14] = ATCC 29213 / MSSA, Table 2, read-out: MIC S. aureus (MSSA) ATCC 29213 CLSI control strain

| SMILES | MIC [1, 13] [µg/mL] | MIC [1, 14] [µg/mL] | MIC [2] [µg/mL] | MIC [3] [µg/mL] | MIC [5] [µg/mL] | MIC [6] [µg/mL] | MIC [8] [µg/mL] | MIC [9] [µg/mL] | MIC [10] [µg/mL] | MIC [11] [µg/mL] | MIC [12] [µg/mL] | MIC [4] [µg/mL] | IC50 [7] [µg/mL] |
| --- | --- | --- | --- | --- | --- | --- | --- | --- | --- | --- | --- | --- | --- |
| CCn1c(=O)c2ncoc2c2ccc(-c3cc(F)c(N)cc3F)c(C)c21 [Compound 2, 7-(4-amino-2,5-difluoro-phenyl)-5-ethyl-6-methyl-oxazolo[4,5-c]quinolin-4-one] | 1 to 10 (≈ 2.81 to 28.1 µM) | 1 to 10 (≈ 2.81 to 28.1 µM) | > 100 | 1 to 10 (≈ 2.81 to 28.1 µM) | > 100 | 10 to 100 (≈ 28.1 to 281 µM) | – | – | – | – | – | 1 to 10 (≈ 2.81 to 28.1 µM) | 10 to 100 (≈ 28.1 to 281 µM) |
| Cc1nc2c(=O)n(C3CC3)c3c(C)c(-c4cc(F)c(N)cc4F)ccc3c2o1 [Compound 4, 7-(4-amino-2,5-difluoro-phenyl)-5-cyclopropyl-2,6-dimethyl-oxazolo[4,5-c]quinolin-4-one] | < 1 | < 1 | 1 to 10 (≈ 2.62 to 26.2 µM) | < 1 | > 100 | < 1 | < 1 | 1 to 10 (≈ 2.62 to 26.2 µM) | < 1 | < 1 | – | < 1 | 10 to 100 (≈ 26.2 to 262 µM) |
| Cc1c(-c2cnc(N)nc2)ccc2c3ocnc3c(=O)n(C3CC3)c12 [Compound 14, 7-(2-aminopyrimidin-5-yl)-5-cyclopropyl-6-methyl-oxazolo[4,5-c]quinolin-4-one] | < 1 | < 1 | 10 to 100 (≈ 30 to 300 µM) | 1 to 10 (≈ 3 to 30 µM) | > 100 | 1 to 10 (≈ 3 to 30 µM) | 1 to 10 (≈ 3 to 30 µM) | 1 to 10 (≈ 3 to 30 µM) | – | – | – | 1 to 10 (≈ 3 to 30 µM) | 10 to 100 (≈ 30 to 300 µM) |
| Cc1c(-c2cc(F)c(CO)cc2F)ccc2c3ocnc3c(=O)n(C3CC3)c12 [Compound 25, 5-cyclopropyl-7-[2,5-difluoro-4-(hydroxymethyl)phenyl]-6-methyl-oxazolo[4,5-c]quinolin-4-one] | < 1 | < 1 | 1 to 10 (≈ 2.62 to 26.2 µM) | < 1 | 10 to 100 (≈ 26.2 to 262 µM) | < 1 | < 1 | < 1 | < 1 | < 1 | < 1 | – | 10 to 100 (≈ 26.2 to 262 µM) |
| CCOC(=O)CNC(=O)c1ccc(-c2ccc3c4ocnc4c(=O)n(C4CC4)c3c2C)cc1 [Compound 30, ethyl-2-[{4-(5-cyclopropyl-6-methyl-4-oxo-oxazolo[4,5-c]quinolin-7-yl)benzoyl}amino]acetate] | 1 to 10 (≈ 2.24 to 22.4 µM) | 1 to 10 (≈ 2.24 to 22.4 µM) | > 100 | 1 to 10 (≈ 2.24 to 22.4 µM) | > 100 | 1 to 10 (≈ 2.24 to 22.4 µM) | 1 to 10 (≈ 2.24 to 22.4 µM) | 1 to 10 (≈ 2.24 to 22.4 µM) | 1 to 10 (≈ 2.24 to 22.4 µM) | 1 to 10 (≈ 2.24 to 22.4 µM) | – | – | 10 to 100 (≈ 22.4 to 224 µM) |
| Cc1c(-c2ccc(N)c(F)c2)ccc2c3ocnc3c(=O)n(C3CC3)c12 [Compound 38, 7-(4-amino-3-fluorophenyl)-5-cyclopropyl-6-methyl-oxazolo[4,5-c]quinolin-4-one] | < 1 | < 1 | 1 to 10 (≈ 2.86 to 28.6 µM) | 1 to 10 (≈ 2.86 to 28.6 µM) | > 100 | < 1 | – | – | – | – | – | < 1 | > 100 |
| Cc1nc2c(=O)n(C3CC3)c3cc(N4CCC(N)CC4)c(F)cc3c2o1 [Compound 49, 7-(4-amino-1-piperidyl)-5-cyclopropyl-8-fluoro-2-methyl-oxazolo[4,5-c]quinolin-4-one] | 1 to 10 (≈ 2.81 to 28.1 µM) | 1 to 10 (≈ 2.81 to 28.1 µM) | 1 to 10 (≈ 2.81 to 28.1 µM) | 10 to 100 (≈ 28.1 to 281 µM) | 10 to 100 (≈ 28.1 to 281 µM) | 1 to 10 (≈ 2.81 to 28.1 µM) | 1 to 10 (≈ 2.81 to 28.1 µM) | 10 to 100 (≈ 28.1 to 281 µM) | 10 to 100 (≈ 28.1 to 281 µM) | > 100 | – | – | 10 to 100 (≈ 28.1 to 281 µM) |
| Cc1nc2c(=O)n(C3CC3)c3cc(N4CC[C@H](CN)C4)c(F)cc3c2o1 [Compound 52, 7-[(3R)-3-(aminomethyl)pyrrolidin-1-yl]-5-cyclopropyl-8-fluoro-2-methyl-oxazolo[4,5-c]quinolin-4-one] | 1 to 10 (≈ 2.81 to 28.1 µM) | 1 to 10 (≈ 2.81 to 28.1 µM) | 1 to 10 (≈ 2.81 to 28.1 µM) | 1 to 10 (≈ 2.81 to 28.1 µM) | 10 to 100 (≈ 28.1 to 281 µM) | 1 to 10 (≈ 2.81 to 28.1 µM) | < 1 | 1 to 10 (≈ 2.81 to 28.1 µM) | 1 to 10 (≈ 2.81 to 28.1 µM) | 1 to 10 (≈ 2.81 to 28.1 µM) | – | 1 to 10 (≈ 2.81 to 28.1 µM) | 10 to 100 (≈ 28.1 to 281 µM) |
| Nc1cc(F)c(-c2cc3c(cc2F)c2ocnc2c(=O)n3C2CC2)cc1F [Compound 69, 7-(4-amino-2,5-difluoro-phenyl)-5-cyclopropyl-8-fluoro-oxazolo[4,5-c]quinolin-4-one] | < 1 | < 1 | 1 to 10 (≈ 2.69 to 26.9 µM) | 1 to 10 (≈ 2.69 to 26.9 µM) | > 100 | < 1 | < 1 | – | < 1 | < 1 | 1 to 10 (≈ 2.69 to 26.9 µM) | – | – |
| NC1CCN(c2nc3c(cc2F)c2ocnc2c(=O)n3C2CC2)C1 (stereo not drawn) [Compound 80, 7-(3-aminopyrrolidin-1-yl)-5-cyclopropyl-8-fluoro-oxazolo[4,5-c][1,8]naphthyridin-4-one] | 1 to 10 (≈ 3.04 to 30.4 µM) | 1 to 10 (≈ 3.04 to 30.4 µM) | 1 to 10 (≈ 3.04 to 30.4 µM) | – | 10 to 100 (≈ 30.4 to 304 µM) | 10 to 100 (≈ 30.4 to 304 µM) | – | – | – | – | – | 10 to 100 (≈ 30.4 to 304 µM) | – |

The next lines start with results.

| MIC [1, 13] [µg/mL] | MIC [1, 14] [µg/mL] | MIC [2] [µg/mL] | MIC [3] [µg/mL] | MIC [5] [µg/mL] | MIC [6] [µg/mL] | MIC [8] [µg/mL] | MIC [9] [µg/mL] | MIC [10] [µg/mL] | MIC [11] [µg/mL] | MIC [12] [µg/mL] | SMILES | MIC [4] [µg/mL] | IC50 [7] [µg/mL] |
| --- | --- | --- | --- | --- | --- | --- | --- | --- | --- | --- | --- | --- | --- |
| < 1 | < 1 | 10 to 100 (≈ 26.9 to 269 µM) | < 1 | 1 to 10 (≈ 2.69 to 26.9 µM) | 1 to 10 (≈ 2.69 to 26.9 µM) | < 1 | < 1 | < 1 | < 1 | < 1 | Cc1c(-c2cnc3[nH]nc(N)c3c2)ccc2c3ocnc3c(=O)n(C3CC3)c12 [Compound 21, 7-(3-amino-1H-pyrazolo[3,4-b]pyridine-5-yl)-5-cyclopropyl-6-methyl-oxazolo[4,5-c]quinolin-4-one] | – | 10 to 100 (≈ 26.9 to 269 µM) |
| < 1 | < 1 | 1 to 10 (≈ 2.62 to 26.2 µM) | 1 to 10 (≈ 2.62 to 26.2 µM) | 10 to 100 (≈ 26.2 to 262 µM) | 1 to 10 (≈ 2.62 to 26.2 µM) | < 1 | 1 to 10 (≈ 2.62 to 26.2 µM) | 1 to 10 (≈ 2.62 to 26.2 µM) | 10 to 100 (≈ 26.2 to 262 µM) | – | Cc1nc2c(=O)n(C3CC3)c3cc(-c4ccc(CN)c(F)c4)c(F)cc3c2o1 [Compound 76, 7-[4-(aminomethyl)-3-fluoro-phenyl]-5-cyclopropyl-8-fluoro-2-methyl-oxazolo[4,5-c]quinolin-4-one] | – | – |
| 1 to 10 (≈ 2.77 to 27.7 µM) | 1 to 10 (≈ 2.77 to 27.7 µM) | 10 to 100 (≈ 27.7 to 277 µM) | 1 to 10 (≈ 2.77 to 27.7 µM) | 10 to 100 (≈ 27.7 to 277 µM) | 1 to 10 (≈ 2.77 to 27.7 µM) | 1 to 10 (≈ 2.77 to 27.7 µM) | 1 to 10 (≈ 2.77 to 27.7 µM) | 1 to 10 (≈ 2.77 to 27.7 µM) | 1 to 10 (≈ 2.77 to 27.7 µM) | – | C[C@H]1COc2c(-c3ccc(C(N)=O)cc3)ccc3c4ocnc4c(=O)n1c23 [Compound 96, 4-[(2S)-2-methyl-15-oxo-4,11-dioxa-1,13-diazatetracyclo[7.6.1.0^5,^16.0^10,^14]hexadeca-5(16),6,8,10(14),12-pentaen-6-yl]benzamide] | – | 10 to 100 (≈ 27.7 to 277 µM) |
| < 1 | < 1 | 1 to 10 (≈ 2.52 to 25.2 µM) | < 1 | – | < 1 | < 1 | 1 to 10 (≈ 2.52 to 25.2 µM) | 1 to 10 (≈ 2.52 to 25.2 µM) | 1 to 10 (≈ 2.52 to 25.2 µM) | – | Cc1c(-c2cc(F)c(N)cc2F)ccc2c3oc(CO)nc3c(=O)n(C3CC3)c12 [Compound 99, 7-(4-amino-2,5-difluorophenyl)-5-cyclopropyl-2-(hydroxymethyl)-6-methyloxazolo[4,5-c]quinolin-4-one] | – | – |
| < 1 | < 1 | < 1 | < 1 | > 100 | 1 to 10 (≈ 2.68 to 26.8 µM) | < 1 | < 1 | < 1 | < 1 | 1 to 10 (≈ 2.68 to 26.8 µM) | Cc1c(-c2ccc3[nH]ncc3c2)ccc2c3scnc3c(=O)n(C3CC3)c12 [Compound 109, 5-Cyclopropyl-7-(1H-indazol-5-yl)-6-methyl-thiazolo[4,5-c]quinolin-4-one] | – | – |
